Experimental data from publication PMC4049574 (PLoS ONE, 2014).
Counter-ions that a name gives are not always drawn. Values belong to the molecule of their own block, whether it stands above or below them.

Tests used:
[1] = biological target: T1, human mitochondrial NAD(P)+-dependent malic enzyme (m-NAD(P)-ME, ME2) (Homo sapiens, UniProt P23368); assay: spectrophotometric NADH assay at […] nm; fumarate competition/rescue; allosteric-site mutant controls; type: biochemical
[2] = biological target: T1, human mitochondrial NAD(P)+-dependent malic enzyme (m-NAD(P)-ME, ME2); assay: enzyme activation assay ([…] nm), purified enzyme; allosteric-site mutant controls; settings: read-out: ^3 ^, ^4m-NAD(P)-ME WT

T1 sequence (P23368 19-584): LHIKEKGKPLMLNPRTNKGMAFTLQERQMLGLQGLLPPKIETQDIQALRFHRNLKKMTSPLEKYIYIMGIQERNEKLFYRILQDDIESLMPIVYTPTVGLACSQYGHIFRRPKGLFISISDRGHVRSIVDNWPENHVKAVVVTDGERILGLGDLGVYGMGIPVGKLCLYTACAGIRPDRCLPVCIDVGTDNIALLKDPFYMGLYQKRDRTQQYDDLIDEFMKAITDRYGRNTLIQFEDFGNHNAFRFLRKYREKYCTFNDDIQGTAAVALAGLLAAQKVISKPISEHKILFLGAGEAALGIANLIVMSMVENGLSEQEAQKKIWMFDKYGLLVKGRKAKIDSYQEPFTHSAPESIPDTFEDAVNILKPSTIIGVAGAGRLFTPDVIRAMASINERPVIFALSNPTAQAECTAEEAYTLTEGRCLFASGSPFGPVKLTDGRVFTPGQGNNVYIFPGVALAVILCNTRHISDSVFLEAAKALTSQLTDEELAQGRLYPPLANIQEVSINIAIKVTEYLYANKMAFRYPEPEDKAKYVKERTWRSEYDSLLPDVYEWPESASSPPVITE

IC50 [1]: ~2.5 mM
Compound: CCOC(=O)/C=C(\O)C(=O)OCC [diethyl oxalacetate]

fold induction at 5000 µM [2]: 2.78 ± 0.08
Compound: COC(=O)/C=C/C(=O)O [Monomethyl fumarate]

fold induction at 20000 µM [2]: 1.75 ± 0.16
Compound: C/C(=C\C(=O)O)C(=O)O [Mesaconate]

fold induction at 10000 µM [2]: 1.83 ± 0.04
Compound: CCOC(=O)/C=C/C(=O)O [Monoethyl fumarate]
